The structures appear in SMILES notation. Like-named read-outs stand apart in the source and are kept apart here.

One assay deals with T1, recombinant ATX-HA (Homo sapiens, UniProt Q13822).
T1 construct: HA
Briefly: Autotaxin assay (FS-3 hydrolysis). In kind it is biochemical. The note with it: for Inhibition (%) of autotaxin (ATX) phosphodiesterase activity / inhibition at 10 µM: FS-3 substrate. How it is done:
Autotaxin Assay. This assay utilizes FS-3 (Echelon Biosciences, Inc. Salt Lake City, Utah) as substrate and recombinant ATX-HA. For analysis, 50 μl of ATX-HA (0.25 μg) in assay buffer (Tris 50 mM, NaCl 140 mM, KCl 5mM, CaCl2 1 mM, MgCl2 1 mM, pH 8.0) was mixed with 25 μl of FS-3 (1 μM final concentration in assay buffer) and 25 μl of test compound dissolved in assay buffer containing 1:1.5 bovine serum albumin in 96-well plate. FS-3 fluorescence was monitored using FLEXstation fluorescence plate reader at a time zero and after 2 hours of incubation at 37° C. at excitation and emission wavelengths of 485 nm and 538 nm, respectively. Data was normalized to the corresponding vehicle control and the mean±standard deviation of triplicate wells were expressed as percent ATX inhibition. IC50, and Ki values were calculated as described.

The target in the next assay is T2, human LPA3 (Homo sapiens, UniProt Q9UBY5).
T2 construct: expressed in transfected cells
T2 sequence (Q9UBY5 1-353): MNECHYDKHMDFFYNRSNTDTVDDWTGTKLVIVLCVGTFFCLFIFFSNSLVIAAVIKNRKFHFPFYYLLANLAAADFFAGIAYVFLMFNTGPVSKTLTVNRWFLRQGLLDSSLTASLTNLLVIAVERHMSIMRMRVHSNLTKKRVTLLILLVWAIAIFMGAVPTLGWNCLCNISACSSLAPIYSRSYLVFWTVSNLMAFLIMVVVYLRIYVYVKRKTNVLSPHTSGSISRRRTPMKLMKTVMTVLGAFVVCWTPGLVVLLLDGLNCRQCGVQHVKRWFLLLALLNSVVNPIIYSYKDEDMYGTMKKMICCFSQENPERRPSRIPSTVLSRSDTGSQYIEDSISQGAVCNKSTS
Briefly: Ca2+ mobilization assay, LPA3. The note with it: for EC50: RH7777 cells stably expressing LPA3, agonist mode; for LPA3 (Emax): Emax = (maximal efficacy of compound/maximal efficacy of LPA 18:1) × 100; for LPA3 ligand type: agonist/antagonist in words. The assay is classed as cell-based. How it is done: (§1) Receptor activation using Ca^2+ mobilization assay for diastereomers of 1 (also represented as 19b). The rat hepatoma (RH7777) cell lines individually expressing either LPA1, LPA2, LPA3 or LPA5 receptors and Chinese hamster ovary (CHO) cell line were analyzed to examine agonism and antagonism. […] CHO cells stably expressing either vector or LPA4 were kindly gifted from Dr. Shimizu (University of Tokyo, Tokyo, Japan).
(§2) Stable transformants of LPA1/2/3 receptors. RH7777 cells stably expressing each receptor were plated onto poly-L-lysine (PLL) (0.1 mg/mL)-coated black-wall clear-bottom 96-well plates (Corning Incorporated Life Sciences, Acton, Mass.) at a density of 5×10^4 cells/well and cultured overnight. The following day, the culture medium was replaced with modified Krebs buffer (120 mM NaCl, 5 mM KCl, 0.62 mM MgSO4, 1.8 mM CaCl2, 10 mM HEPES, 6 mM glucose, pH 7.4), and the cells were serum starved for 6 h. Subsequently, cells were loaded with Fura-2 AM (Invitrogen, Carlsbad, Calif.) for 35 min in modified Krebs buffer containing 2% (v/v) pluronic acid.
After incubating the cells with Fura-2 AM, the cells were rinsed with Krebs buffer and changes in the intracellular Ca^2+ concentration were monitored by determining the ratio of emitted light intensities at 520 nm in response to excitation at 340 and 380 nm using FLEXstation II (Molecular Devices, Sunnyvale, Calif.). Each well was monitored for 80-120 sec. For testing agonist activity of the compounds, the test compounds were added automatically after 15 sec of baseline measurement. […] Each test was performed in quadruplicate. EC50, IC50, and Ki values were calculated by fitting a sigmoid function to data points with the nonlinear curve-fitting feature of KaleidaGraph (Synergy Software, Essex Junction, Vt.).
Receptor activation using Ca^2+ mobilization assay. The assay for mobilization of intracellular Ca^2+ was performed as described. Briefly, rat hepatoma RH7777 cells stably expressing human LPA1, LPA2, or LPA3, and CHO cells stably expressing LPA4, were loaded with Fura-2 AM (Molecular Probes). Using a FLEXStation (Molecular Devices, Sunnyvale, Calif.), changes in intracellular Ca^2+ concentration were monitored. Ligand-induced changes in fluorescence were monitored for 80-120 seconds. Ca^2+ transients were quantified automatically by calculating the difference between maximum and baseline ratio values for each sample. […] Each test was performed in quadruplicate. EC50, IC50, and Ki values were calculated as described. The ligand properties of the compounds were evaluated using Ca^2+ mobilization assay for assessing the activation/inhibition of LPA1, LPA2, and LPA3 expressed in RH7777 cells and LPA4 expressed in CHO cells.

For a further assay, the target named is T3, human LPA1 (Homo sapiens, UniProt Q92633).
T3 construct: expressed in transfected cells
T3 sequence (Q92633 whole entry): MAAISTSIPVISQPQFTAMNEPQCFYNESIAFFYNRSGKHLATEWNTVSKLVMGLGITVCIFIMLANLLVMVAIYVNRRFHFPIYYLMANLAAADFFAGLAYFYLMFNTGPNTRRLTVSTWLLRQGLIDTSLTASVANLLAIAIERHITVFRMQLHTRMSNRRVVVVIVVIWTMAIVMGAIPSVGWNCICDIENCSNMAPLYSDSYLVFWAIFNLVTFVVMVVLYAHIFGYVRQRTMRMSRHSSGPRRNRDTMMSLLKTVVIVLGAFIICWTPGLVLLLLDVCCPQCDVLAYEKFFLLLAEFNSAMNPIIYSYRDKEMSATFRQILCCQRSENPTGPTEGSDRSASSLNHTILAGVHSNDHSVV
Description: Ca2+ mobilization assay, LPA1. The note with it: for EC50: RH7777 cells stably expressing LPA1, agonist mode; for LPA1 (Emax): Emax = (maximal efficacy of compound/maximal efficacy of LPA 18:1) × 100; for LPA1 ligand type: agonist/antagonist in words. In kind it is cell-based. On the procedure: as §1, §2
After incubating the cells with Fura-2 AM, the cells were rinsed with Krebs buffer and changes in the intracellular Ca^2+ concentration were monitored by determining the ratio of emitted light intensities at 520 nm in response to excitation at 340 and 380 nm using FLEXstation II (Molecular Devices, Sunnyvale, Calif.). Each well was monitored for 80-120 sec. For testing agonist activity of the compounds, the test compounds were added automatically after 15 sec of baseline measurement. To determine antagonist properties, varying concentrations of the compounds were mixed with a constant concentration of LPA and responses were monitored. Each test was performed in quadruplicate. EC50, IC50, and Ki values were calculated by fitting a sigmoid function to data points with the nonlinear curve-fitting feature of KaleidaGraph (Synergy Software, Essex Junction, Vt.).
Receptor activation using Ca^2+ mobilization assay. The assay for mobilization of intracellular Ca^2+ was performed as described. Briefly, rat hepatoma RH7777 cells stably expressing human LPA1, LPA2, or LPA3, and CHO cells stably expressing LPA4, were loaded with Fura-2 AM (Molecular Probes). Using a FLEXStation (Molecular Devices, Sunnyvale, Calif.), changes in intracellular Ca^2+ concentration were monitored. Ligand-induced changes in fluorescence were monitored for 80-120 seconds. Ca^2+ transients were quantified automatically by calculating the difference between maximum and baseline ratio values for each sample. To determine antagonist properties, different concentrations of each analogue were mixed with either palmitoyl (16:0) or oleoyl (18:1) LPA (200 nM for LPA1 and LPA3, 10 nM for LPA2, and 400 nM for LPA4) (Avanti Polar Lipids, Inc., […], Ala.) and responses were recorded. Each test was performed in quadruplicate. EC50, IC50, and Ki values were calculated as described. The ligand properties of the compounds were evaluated using Ca^2+ mobilization assay for assessing the activation/inhibition of LPA1, LPA2, and LPA3 expressed in RH7777 cells and LPA4 expressed in CHO cells. Table l illustrates calcium responses elicited through the activation of human LPA1, LPA2, LPA3 and LPA4 receptors. These cell lines have been used extensively for the characterization of LPA GPCR ligands because RH7777 cells are intrinsically unresponsive to LPA and CHO cells show minimal endogenous responses to LPA unless transfected with LPA4.

Setting [1] is: 10 μM, read-out: ATX Inhibition (Table 2).
The mark [2] stands for this setting: antagonist mode vs 200 nM LPA, read-out: LPA3 (Ki).
Where [3] appears, read: antagonist mode vs 200 nM LPA, PA = partial antagonist, read-out: LPA1 IC50.
Where [4] appears, read: diastereomer study, RH7777 cells, read-out: LPA1 IC50 (Table 2).
Setting [5] is: diastereomer study, RH7777 cells, read-out: LPA1 Ki (Table 2).
Setting [6] is: 10.0 μM, preliminary single-dose screen.
Setting [7] is: diastereomer study, RH7777 cells, read-out: LPA3 IC50 (Table 2).
Where [8] appears, read: diastereomer study, RH7777 cells, read-out: LPA3 Ki (Table 2).

What is called inhibition is the change of the read-out against control, counted positive when it falls. By EC50 is commonly meant the concentration at which the effect is half-maximal. For orientation: Ki means a measure of affinity in units of concentration, obtained from inhibition or displacement. As usually defined, the IC50 is the midpoint of a concentration-inhibition curve. Take `CCCCCCCCCCCCCCCC(=O)OC[C@@H](O)CC(Br)P(=O)(O)O` (mixture of isomers) [Compound 1, [1-Bromo-3(S)-hydroxyl-4-(palmitoyloxy)butyl]-phosphonate]: the “Inhibition (%) of autotaxin (ATX) phosphodiesterase activity” value (“Inhibition (%) of autotaxin” below) on recombinant ATX-HA (10.0 μM, preliminary single-dose screen, listed as 19b) was 93.7 ± 2.0%. The inhibition at 10 µM on recombinant ATX-HA (10.0 μM, preliminary single-dose screen, read-out: Inhibition (%) of autotaxin (ATX) phosphodiesterase activity) is above 90%; on recombinant ATX-HA (setting [1]) it was 102 ± 2.7%. In addition, the concentration for a half-maximal effect (EC50) at human LPA3 and on human LPA1 was above 30 µM in each case. For the same compound, the Ki on human LPA3 (setting [2]) was determined as 0.38 µM; at human LPA1 (antagonist mode vs 200 nM LPA, read-out: LPA1 (Ki)), 0.751 µM; at human LPA1 (setting [5]), 0.805 µM. At human LPA3 (at 30 μM (200 nM LPA)), the inhibition at 30 µM came to 71.3%. Moreover, the half-maximal inhibitory concentration (IC50) on human LPA3 (read-out: LPA3 IC50) is 1.16 ± 0.259 µM; at human LPA1 (setting [3]), 1.5 ± 0.559 µM; at human LPA1 (setting [4]) it was 4.52 µM.
Take `CCCCCCCCC=CCCCCCCCC(=O)OCC(O)CC(O)P(=O)([O-])O.[Na+]` (mixture of isomers) [Compound 22a, reference compound]: the “Inhibition (%) of autotaxin” value on recombinant ATX-HA (setting [6]) stood at 74.7%. At human LPA3, the “LPA3 (Emax)” value is “(116 ± 9.5)” and the EC50 amounted to 0.393 ± 0.089 µM. Further, at human LPA1, the “LPA1 (Emax)” value is listed as “(39.1 ± 3.15)” and the concentration giving a half-maximal response (EC50) was above 9.25 µM. Moreover, the half-maximal inhibitory concentration (IC50) at human LPA1 (setting [3]) was above 30 µM.
For `CCCCCCCCCCCCCCCC(=O)OC[C@@H](O)C[C@@H](Br)P(=O)(O)O` [Compound 1a], at recombinant ATX-HA (setting [1]), the inhibition at 10 µM amounted to 98.1 ± 2.3%. Also, at human LPA3, the LPA3 ligand type entry is “Antagonist”. For the same compound, the IC50 was found to be 4.44 µM at human LPA3 (setting [7]) and 0.648 µM on human LPA1 (setting [4]). Also, the Ki at human LPA3 (setting [8]) worked out at 1.83 µM; on human LPA1 (setting [5]) it was 0.273 µM. Further, on human LPA1, the LPA1 ligand type result was “Antagonist”.
In the case of `CCCCCCCCCCCCCCCC(=O)OCC(O)CC(O)P(=O)([O-])O.[Na+]` (mixture of isomers) [Compound 22b, reference compound], the “Inhibition (%) of autotaxin” value at recombinant ATX-HA (setting [6]) was 54.1%. Further, the EC50 at human LPA3 and on human LPA1 was above 30 µM in each case. The IC50 at human LPA1 (setting [3]) was above 30 µM.
Turning to `CCCCCCCCCCCCCCCC(=O)OC[C@@H](O)CCP(=O)([O-])O.[Na+]` [Compound 20b, reference compound], the “Inhibition (%) of autotaxin” value on recombinant ATX-HA (setting [6]) is 60.6 ± 4.6%. Moreover, the EC50 at human LPA3 and on human LPA1 was above 30 µM throughout. Besides, the concentration for half-maximal inhibition (IC50) is 2.56 ± 1.16 µM at human LPA3 (antagonist mode vs 200 nM LPA, PA = partial antagonist, read-out: LPA3 IC50) and above 30 µM on human LPA1 (setting [3]). For the same compound, the inhibition constant Ki on human LPA3 (setting [2]) is 0.961 µM.
On to `CCCCCCCC/C=C\CCCCCCCC(=O)OCC(O)CCP(=O)(O)O` (stereo not shown) [Compound 20a, reference compound], for which the “Inhibition (%) of autotaxin” value on recombinant ATX-HA (setting [6]) was 99.8%. At human LPA3, the “LPA3 (Emax)” value is reported as “(63.5 ± 4.8)” and the EC50 was above 1.71 µM. On human LPA1, the “LPA1 (Emax)” value is “(52.9 ± 11.3)” and the EC50 is above 2.52 µM. For the same compound, the IC50 at human LPA1 (setting [3]) was above 30 µM.
In the case of `CCCCCCCCCCCCCCCC(=O)OC[C@@H](O)C[C@H](Br)P(=O)(O)O` [Compound 1b], the inhibition at 10 µM on recombinant ATX-HA (setting [1]) was 99.4 ± 2.7%. The IC50 on recombinant ATX-HA (0.3 to 10 μM, FS-3 hydrolysis, read-out: ATX apparent IC50) was around 0.3 µM; on human LPA3 (setting [7]), 2.09 µM; at human LPA1 (setting [4]) it was 2.08 µM. Besides, at human LPA3, the LPA3 ligand type result is given as “Antagonist”. Also, the values for the Ki on human LPA3 (setting [8]) and on human LPA1 (setting [5]) were 0.623 µM and 0.752 µM, respectively. Moreover, the LPA1 ligand type result on human LPA1 is reported as “Antagonist”.
In the case of `CCCCCCCCCCCCCCCC(=O)OCC(O)COP(=O)(O)O` (stereo not shown) [LPA (16:0), reference compound], at recombinant ATX-HA (setting [6]), the “Inhibition (%) of autotaxin” value came to 38.1 ± 3.4%. Further, on human LPA3, the “LPA3 (Emax)” value was “(71.2 ± 2.9)” and the EC50 came to 1.53 ± 0.194 µM. Further, at human LPA1, the “LPA1 (Emax)” value is on record as “(88.7 ± 3.6)” and the EC50 is 0.0908 ± 0.0209 µM. Also, the half-inhibitory concentration (IC50) at human LPA1 (setting [3]) was above 30 µM.

For the origin of these results see patent US8722649B2, “Alpha-chloro and alpha-bromo phosphonate analogs of lysophosphatidic acid and methods of making and using thereof” (University of Utah Research Foundation, priority 2007, dated 2014).
